Test results published in patent publication US10792377B2, “Compounds and method for imaging cancer” (Vanderbilt University, priority 2017, dated 2020).
Where two headings read alike, the source gives them in different places.

Legend:
[1] = system: 4T1 orthotopic breast cancer xenografts; assay: In vivo image-guidance of chemocoxib A delivery, orthotopic 4T1 breast cancer xenografts; details: tumor homogenate, LC-MS, 49 h after CA-FQ-NPs (1 mg/kg CA, 1 mg/kg FQ, s.c.)
Protocol: To generate orthotopic breast cancer xenografts, the 4T1 tumor cells (1×10^6 in 200 μL sterile PBS) were injected into the inguinal mammary fat-pads of athymic Balb/C nu/nu female mice (4-6 weeks old, Jax Mice). Tumors were full-grown by 4-5 weeks (tumor volume=length×width^2×0.52).
The animals were dosed with CA-FQ-NPs in PBS (1 mg/kg CA, 1 mg/kg FQ, s.c.) and imaged on a Xenogen IVIS200 optical imaging instrument at 0.5 h, 1 h, 3 h, 6 h, 28 h, and 49 h post-injection. […] After in vivo imaging, the 49 h animals group was euthanized, and brain, muscle, tumor, liver, lung, and kidney tissues were collected (FIG. 32D).

[2] = molecular target: T1, hCOX-2 in 1483 cells (Homo sapiens, UniProt P35354); assay: Intact cell COX-2 inhibition assay in 1483 HNSCC cells; type: cell-based; details: high throughput screening, intact cancer cells; read-out: COX-2 positive 1483 HNSCC cells IC50
T1 construct: cells that express high levels of COX-2 were selected; endogenous in cells; host or cells: 1483 human head and neck squamous cell carcinoma (HNSCC) cells
T1 sequence (P35354 18-604): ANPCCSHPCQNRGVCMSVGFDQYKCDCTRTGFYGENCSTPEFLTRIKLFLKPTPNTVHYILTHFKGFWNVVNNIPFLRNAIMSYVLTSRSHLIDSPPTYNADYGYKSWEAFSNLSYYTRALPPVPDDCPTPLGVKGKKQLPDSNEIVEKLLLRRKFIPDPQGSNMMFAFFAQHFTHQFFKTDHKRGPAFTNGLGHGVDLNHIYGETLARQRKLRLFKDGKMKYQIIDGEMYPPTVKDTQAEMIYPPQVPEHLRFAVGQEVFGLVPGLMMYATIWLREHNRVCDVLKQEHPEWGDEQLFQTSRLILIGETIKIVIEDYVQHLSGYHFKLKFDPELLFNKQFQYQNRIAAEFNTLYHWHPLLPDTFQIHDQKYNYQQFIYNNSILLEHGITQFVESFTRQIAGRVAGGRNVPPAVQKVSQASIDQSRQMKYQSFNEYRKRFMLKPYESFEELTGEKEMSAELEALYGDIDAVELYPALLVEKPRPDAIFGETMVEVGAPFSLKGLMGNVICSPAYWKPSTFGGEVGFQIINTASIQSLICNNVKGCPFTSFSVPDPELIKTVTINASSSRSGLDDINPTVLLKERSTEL
Protocol: Following the promising results from the purified enzyme assay, the ability of compound 1 to inhibit COX-2 in intact cells was examined using a previously reported method. 1483 human head and neck squamous cell carcinoma (1483 HNSCC) cells that express high levels of COX-2 were selected. […]
Cell Culture and In Vitro Intact Cell Metabolism Assay. Inhibition of COX-2 in intact cells by test compounds was assayed by a previously described method. Human 1483 head and neck squamous cell carcinoma (HNSCC) cells (passage 8-18, mycoplasma negative by a polymerase chain reaction detection method) were cultured in DMEM/F12+10% fetal bovine serum+Antibiotic/Antimycotic in 6-well plates to 60% confluence. […] Reactions were terminated and analyzed by thin layer chromatography as described above.

[3] = molecular target: T2, ovine COX-1 (Ovis aries, UniProt P05979); assay: In vitro purified COX-1 inhibition assay (TLC, 14C-arachidonic acid); type: biochemical
T2 sequence (P05979 25-600): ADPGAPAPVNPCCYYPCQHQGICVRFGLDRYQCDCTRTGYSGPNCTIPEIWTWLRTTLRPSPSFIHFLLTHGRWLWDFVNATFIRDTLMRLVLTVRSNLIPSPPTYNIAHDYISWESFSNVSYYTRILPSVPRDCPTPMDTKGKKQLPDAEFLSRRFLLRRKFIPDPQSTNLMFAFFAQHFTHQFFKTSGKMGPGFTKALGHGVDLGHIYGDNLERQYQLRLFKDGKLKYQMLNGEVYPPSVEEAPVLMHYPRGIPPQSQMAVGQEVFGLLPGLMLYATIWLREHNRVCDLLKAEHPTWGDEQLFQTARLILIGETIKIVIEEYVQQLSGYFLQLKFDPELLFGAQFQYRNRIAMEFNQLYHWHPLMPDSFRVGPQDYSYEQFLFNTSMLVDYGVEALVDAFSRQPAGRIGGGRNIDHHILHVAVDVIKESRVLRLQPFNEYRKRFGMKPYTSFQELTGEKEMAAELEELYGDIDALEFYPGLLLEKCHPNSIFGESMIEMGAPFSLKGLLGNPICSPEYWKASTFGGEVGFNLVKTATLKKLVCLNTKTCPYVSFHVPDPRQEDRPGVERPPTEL
Protocol: (§1) The in vitro cyclooxygenase (ovine COX-1 or human COX-2) inhibitory activities of these probes were tested by a previously described TLC assay (FIGS. 19-21). Briefly, reaction mixtures of 200 μL consisted of hematin-reconstituted protein in 100 mM Tris-HCl, pH 8.0, 500 μM phenol, and [1-^14C]arachidonic acid (50 μM, about 55-57 mCi/mmol, Perkin Elmer).
Inhibition Assay Using Purified COX-1 and COX-2. Inhibition of purified ovine COX-1 or mouse COX-2 by test compounds was assayed by a previously described method, which quantifies the conversion of [1-^14C]arachidonic acid to [1-^14C]prostaglandin products. Reaction mixtures of 200 ∝L consisted of hematin-reconstituted protein in 100 mM Tris-HCl, pH 8.0, 500 μM phenol, and [1-^14C]arachidonic acid (50 μM, ˜55-57 mCi/mmol, Perkin Elmer). […] Reactions were terminated by solvent extraction in diethyl ether:methanol:1 M citrate buffer, pH 4.0 (30:4:1). The phases were separated by centrifugation at 2000 g for 2 min, and the organic phase was spotted on a thin-layer chromatography plate (EMD Kieselgel 60, VWR). The plate was developed in ethyl acetate:methylene chloride:glacial AcOH (75:25:1) at 4° C. Radiolabeled products were quantified with a radioactivity scanner (Bioscan, Inc., Washington, D.C.).

[4] = molecular target: T3, murine COX-2 (Mus musculus, UniProt Q05769); assay: In vitro purified COX-2 inhibition assay (TLC, 14C-arachidonic acid); type: biochemical; details: for COX-2 Selectivity Index (COX-1 IC50/COX-2 IC50): in vitro, purified enzymes
T3 sequence (Q05769 18-604): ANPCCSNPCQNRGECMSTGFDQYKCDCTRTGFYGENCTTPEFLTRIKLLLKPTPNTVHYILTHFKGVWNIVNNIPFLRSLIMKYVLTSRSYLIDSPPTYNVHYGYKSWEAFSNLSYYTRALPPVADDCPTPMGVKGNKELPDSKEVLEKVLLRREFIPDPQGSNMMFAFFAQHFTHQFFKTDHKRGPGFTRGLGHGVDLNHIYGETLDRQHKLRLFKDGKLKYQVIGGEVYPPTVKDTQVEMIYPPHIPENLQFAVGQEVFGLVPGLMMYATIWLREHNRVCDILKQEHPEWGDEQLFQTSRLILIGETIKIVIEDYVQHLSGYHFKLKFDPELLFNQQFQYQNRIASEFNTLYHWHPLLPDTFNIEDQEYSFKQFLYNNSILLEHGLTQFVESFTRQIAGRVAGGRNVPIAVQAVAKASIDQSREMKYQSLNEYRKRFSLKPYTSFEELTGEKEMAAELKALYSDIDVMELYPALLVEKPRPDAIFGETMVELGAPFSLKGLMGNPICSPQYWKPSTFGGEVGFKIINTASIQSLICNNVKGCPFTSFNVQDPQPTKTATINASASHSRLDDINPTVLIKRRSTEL
Protocol: as §1
Inhibition Assay Using Purified COX-1 and COX-2. Inhibition of purified ovine COX-1 or mouse COX-2 by test compounds was assayed by a previously described method, which quantifies the conversion of [1-^14C]arachidonic acid to [1-^14C]prostaglandin products. Reaction mixtures of 200 ∝L consisted of hematin-reconstituted protein in 100 mM Tris-HCl, pH 8.0, 500 μM phenol, and [1-^14C]arachidonic acid (50 μM, ˜55-57 mCi/mmol, Perkin Elmer). For the time-dependent inhibition assay, hematin-reconstituted COX-1 ([…]) was preincubated at 25° C. for 17 min and 37° C. for 3 min with varying inhibitor concentrations in dimethylsulfoxide followed by the addition of [1-^14C]arachidonic acid (50 μM) for 30 s at 37° C. Reactions were terminated by solvent extraction in diethyl ether:methanol:1 M citrate buffer, pH 4.0 (30:4:1). The phases were separated by centrifugation at 2000 g for 2 min, and the organic phase was spotted on a thin-layer chromatography plate (EMD Kieselgel 60, VWR). The plate was developed in ethyl acetate:methylene chloride:glacial AcOH (75:25:1) at 4° C. Radiolabeled products were quantified with a radioactivity scanner (Bioscan, Inc., Washington, D.C.).

[5] = Fluorometry: extinction, quantum yield, fluorescence in DMSO/EtOH; type: physicochemical
Protocol: The TEMPO- and PROXYL-fluorocoxib probes are non-fluorescent (Φfl<0.3) in their non-trapped form, whereas fluorocoxib A or B are highly fluorescent (Φfl[…]) (FIG. 13). However, the absorbance and fluorescence of the TEMPO- and PROXYL-fluorocoxib probes increases in a time-dependent fashion when incubated in a DMSO/EtOH solution (FIGS. 14-15). Referring to FIG. 15, it is noted that at about 16 hours, fluorescence (ex 586 nm) read about 120,000 cps at 607 nm. Turning to FIG. 16, as compared to 5-ROX acid, which had extinction of 36/mM/cm at 580 nm and quantum yield of 0.94 at 604 nm, and fluorocoxib A, which had extinction of 45/mM/cm at 579 nm and quantum yield of 0.93 at 602 nm, fluorocoxib Q1 had extinction of less than 0.4/mM/cm at 586 nm and quantum yield of less than 0.36 at 607 nm. Without wishing to be bound by theory, it is believed that the time-dependent increase in fluorescence and measured fluorescence at 607 nm is the result of reduction/oxidation of fluorocoxib Q1 in the DMSO/EtOH solution (FIG. 16).
Fluorometry. Steady state fluorescence excitation and emission spectra were determined for each compound with a Spex 1681 Fluorolog spectrofluorometer, equipped with a 450 W xenon arc lamp. […]

[6] = mCOX-2 IC50, purified murine COX-2 (63 nM), inhibitor 20 min, then 1-14C-AA (50 μM) 37° C. 30 s, duplicates
[7] = COX-2 IC50, in vitro purified cox assay

Compound	COX-2 Selectivity Index (COX-1 IC50/COX-2 IC50) [4]	IC50 [3] [nM]	IC50 [4, 6] [nM]	other results
COc1ccc2c(c1)c(CC(=O)NCCCCNC(=O)CCC(=O)O[C@H]1c3cc4c(cc3[C@@H](c3cc(OC)c(OC)c(OC)c3)[C@H]3C(=O)OC[C@@H]31)OCO4)c(C)n2C(=O)c1ccc(Cl)cc1 [chemocoxib A, reference compound]	–	–	–	level in tumor tissue [1]: 3.1 pmol/g tissue; IC50 [2]: 200 nM
COc1ccc2c(c1)c(CC(=O)NCCCCNC(=O)c1ccc(C(=O)[O-])c(C3=c4cc5c6c(c4Oc4c3cc3c7c4CCCN7CCC3)CCC[N+]=6CCC5)c1)c(C)n2C(=O)c1ccc(Cl)cc1 [Fluorocoxib B, reference compound]	>31	–	–	IC50 ([3]; purified ovine COX-1 (22.5 nM), inhibitor 20 min, then 1-14C-AA (50 μM) 37° C. 30 s, duplicates, read-out: oCOX-1 IC50): > 25000 nM; IC50 ([4]; purified murine COX-2 (63 nM), inhibitor 20 min, then 1-14C-AA (50 μM) 37° C. 30 s, duplicates, read-out: mCOX-2 IC50): 800 nM
COc1ccc2c(c1)c(CC(=O)NCCCCNC(=O)c1ccc(C3=c4cc5c6c(c4Oc4c3cc3c7c4CCCN7CCC3)CCC[N+]=6CCC5)c(C(=O)NCC3CC(C)(C)N([O])C3(C)C)c1)c(C)n2C(=O)c1ccc(Cl)cc1 (centres unmarked) [Compound 5]	>13	> 25000	1800	–
O=C(O)c1ccc(C(=O)[O-])c(C2=c3cc4c5c(c3Oc3c2cc2c6c3CCCN6CCC2)CCC[N+]=5CCC4)c1 [5-ROX acid]	–	–	–	extinction ([5]; at 580 nm (5-ROX acid), 579 nm (fluorocoxib A), 586 nm (fluorocoxib Q1)): 36 mM⁻¹ cm⁻¹; quantum yield ([5]; at 604 nm (5-ROX acid), 602 nm (fluorocoxib A), 607 nm (fluorocoxib Q1)): 0.94
COc1ccc2c(c1)c(CC(=O)NCCCCNC(=O)c1ccc(C3=c4cc5c6c(c4Oc4c3cc3c7c4CCCN7CCC3)CCC[N+]=6CCC5)c(C(=O)Nc3ccc(C(=O)OC4CC(C)(C)N([O])C(C)(C)C4)cc3)c1)c(C)n2C(=O)c1ccc(Cl)cc1 [Compound 3]	>54	> 25000	–	IC50 [4, 7]: 460 nM
COc1ccc2c(c1)c(CC(=O)NCCCCNC(=O)c1ccc(C(=O)NC3CC(C)(C)N([O])C(C)(C)C3)c(C3=c4cc5c6c(c4Oc4c3cc3c7c4CCCN7CCC3)CCC[N+]=6CCC5)c1)c(C)n2C(=O)c1ccc(Cl)cc1 [Compound 2]	>75	> 25000	330	IC50 [4, 7]: 332 nM
COc1ccc2c(c1)c(CC(=O)NCCCCNC(=O)c1ccc(C3=c4cc5c6c(c4Oc4c3cc3c7c4CCCN7CCC3)CCC[N+]=6CCC5)c(C(=O)OC3CC(C)(C)N([O])C(C)(C)C3)c1)c(C)n2C(=O)c1ccc(Cl)cc1 [Compound 4]	>20	> 25000	1240	–
